Test results taken from patent US9644000B2, “V1a receptor agonists” (Ferring B.V., priority 2012, dated 2017).
*1 amine or outer side, *2 acyl side, *3 side chain or, on linkers, in order; H or OH if unused. Where a SMILES comes first, the peptide text is derived from it. Bridges are numbered along the chain shown (N, C = ends). Roman numbers before positions name the chains, in order. [ ]: non-standard residue; d: D form. The star is where a group is joined. d(isoGln) = NC(=O)[C@@H](CCC(=O)[*:2])N[*:1]; isoGln = NC(=O)[C@H](CCC(=O)[*:2])N[*:1]; d(εLys) = N[C@H](CCCCN[*:1])C(=O)[*:2]; Aad = N[C@@H](CCCC(=O)O)C(=O)O; Cit = NC(=O)NCCC[C@H](N)C(=O)O; Dab = NCC[C@H](N)C(=O)O; PhAc = O=C(Cc1ccccc1)*

How the values were obtained:
human V1aR = molecular target: T1, human V1aR (Homo sapiens, UniProt P37288); assay: FLIPR calcium agonist assay in HEK-flpin cells expressing the vasopressin V1a receptor; assay type: cell-based
T1 construct: expressed in transfected cells
T1 sequence (P37288 whole entry): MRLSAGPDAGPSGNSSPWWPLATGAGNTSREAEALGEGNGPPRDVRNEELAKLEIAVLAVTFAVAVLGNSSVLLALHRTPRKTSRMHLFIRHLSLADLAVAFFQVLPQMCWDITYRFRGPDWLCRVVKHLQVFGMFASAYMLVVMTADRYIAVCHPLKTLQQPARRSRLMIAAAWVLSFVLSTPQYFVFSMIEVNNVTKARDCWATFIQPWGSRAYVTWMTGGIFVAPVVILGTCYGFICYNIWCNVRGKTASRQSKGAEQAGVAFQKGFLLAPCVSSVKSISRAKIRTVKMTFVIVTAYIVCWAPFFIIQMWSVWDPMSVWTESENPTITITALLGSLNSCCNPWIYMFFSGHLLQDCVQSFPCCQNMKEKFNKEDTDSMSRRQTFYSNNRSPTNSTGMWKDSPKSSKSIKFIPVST
Description: Efficacy (% MPE) is also determined as the percentage of maximal possible effect. This agonist assay utilizes cells from a stable cell line (HEK-flpin) expressing the vasopressin V1a receptor. Intracellular calcium increase in response to agonist is measured through real-time fluorescence of an intracellular calcium-sensitive dye. Cells are exposed to varying concentrations of test agonist compounds whereupon release of intracellular calcium is measured to determine the agonist potency and efficacy.
The cell line stably expresses the lacZ-Zeocin™ fusion gene and is designed for use with the Flp-In™ expression vector containing the gene of interest and the Flp recombinase expression plasmid, pOG44. The cell line contains a single integrated Flp Recombination Target (FRT) site from pFRT/lacZeo or pFRT/lacZeo2. To generate the HEK-flpin cell line stably expressing the human V1aR, the cells were co-transfected with the Flp-In™ expression vector containing the gene of interest (pcDNA5/FRT-hV1aR) and the Flp recombinase expression plasmid pOG44. Flp recombinase mediates insertion of the Flp-In™ expression vector into the genome at the integrated FRT site through site-specific DNA recombination. Stable cell lines expressing the hV1aR from the Flp-In™ expression vector can be generated by selection using hygromycin B. See Life Technologies/Invitrogen manual, Growth and Maintenance of Flp-In™ Cell Lines, Version E, published Feb.
Efficacy of this compound was set to be 100%. A stock solution of 5 mM was made up in DMSO and stored at −20° C.
HEK-flpin-hV1aR, cmcqV1aR, dV1aR and pV1aR cells were maintained in DMEM containing 10% (v/v) FBS-HI, 4 mM GlutaMAX™-I, 25 μg/mL Hygromycin B at 37° C. under 5% CO2 in a humidified atmosphere. […]
The cell plates were transferred to FLIPR Tetra, along with a 384 well V-bottom plate pre-loaded with half-log concentrations of test compounds at 10× final test concentrations. […] The agonist-induced fluorescence signal was then measured for 180 s with initial 120 readings at 1-second intervals followed by 20 readings at 3-second intervals. […]

[1] = HRS1 patients; cited from earlier work

Row | Compound | EC50 (human V1aR) | further results
1 | CC[C@H](C)[C@@H]1NC(=O)[C@H](Cc2ccccc2)NC(=O)[C@@H](N)CSSC[C@@H](C(=O)N2CCC[C@H]2C(=O)N[C@@H](CCNC(=O)[C@H](N)CCCCNC(=O)CC[C@@H](NC(=O)[C@H](CCCNC(=N)N)NC(=O)[C@@H]2CCCN2C(=O)[C@H](CCCNC(N)=O)NC(=O)[C@H](CC(N)=O)NC(=O)[C@H](CCC(N)=O)NC(=O)[C@H](Cc2ccccc2)NC(=O)[C@@H](Cc2ccc(OC)cc2)NC(=O)Cc2ccccc2)C(N)=O)C(=O)NCC(N)=O)NC(=O)[C@H](CC(N)=O)NC(=O)[C@H](CCC(N)=O)NC1=O [Compound 55] (I: H-CFIQNCP[Dab]G-NH2 / II: PhAc-[dY](Me)FQN[Cit]PR[d(isoGln)][d(εLys)]; disulfide I:1-I:6; amide I:8-II:C) | 1.7 nM | 
2 | CC[C@H](C)[C@@H]1NC(=O)[C@H](Cc2ccccc2)NC(=O)[C@@H](N)CSSC[C@@H](C(=O)N2CCC[C@H]2C(=O)N[C@@H](CCNC(=O)[C@H](N)CCCCNC(=O)CC[C@H](NC(=O)[C@H](CCCNC(=N)N)NC(=O)[C@@H]2CCCN2C(=O)[C@H](CCN)NC(=O)[C@H](CC(N)=O)NC(=O)[C@H](CCC(N)=O)NC(=O)[C@H](Cc2ccccc2)NC(=O)[C@@H](Cc2ccc(OC)cc2)NC(=O)Cc2ccccc2)C(N)=O)C(=O)NCC(N)=O)NC(=O)[C@H](CC(N)=O)NC(=O)[C@H](CC(N)=O)NC1=O [Compound 59] (I: H-CFINNCP[Dab]G-NH2 / II: PhAc-[dY](Me)FQN[Dab]PR[isoGln][d(εLys)]; disulfide I:1-I:6; amide I:8-II:C) | 1.7 nM | 
3 | CC[C@H](C)[C@@H]1NC(=O)[C@H](Cc2ccccc2)NC(=O)[C@@H](N)CSSC[C@@H](C(=O)N2CCC[C@H]2C(=O)N[C@@H](CCNC(=O)[C@H](N)CCCCNC(=O)CC[C@H](NC(=O)[C@H](CCCNC(=N)N)NC(=O)[C@@H]2CCCN2C(=O)[C@H](C)NC(=O)[C@H](CC(N)=O)NC(=O)[C@H](CCC(N)=O)NC(=O)[C@H](Cc2ccccc2)NC(=O)[C@@H](Cc2ccc(OC)cc2)NC(=O)Cc2ccccc2)C(N)=O)C(=O)NCC(N)=O)NC(=O)[C@H](CC(N)=O)NC(=O)[C@H](CCCC(N)=O)NC1=O [Compound 62] (I: H-CFI[Aad](NH2)NCP[Dab]G-NH2 / II: PhAc-[dY](Me)FQNAPR[isoGln][d(εLys)]; disulfide I:1-I:6; amide I:8-II:C) |  | Efficacy Avg. (% MPE, as compared to AVP) (human V1aR; HEK-flpin-hV1aR cells, AVP efficacy set to 100%): 31%
4 | NCCCC[C@H](NC(=O)[C@@H]1CCCN1C(=O)[C@@H]1CSSC[C@H](NC(=O)CNC(=O)CNC(=O)CN)C(=O)N[C@@H](Cc2ccc(O)cc2)C(=O)N[C@@H](Cc2ccccc2)C(=O)N[C@@H](CCC(N)=O)C(=O)N[C@@H](CC(N)=O)C(=O)N1)C(=O)NCC(N)=O [Terlipressin, terlipressin] (H-GGGCYFQNCPKG-NH2; disulfide 4-9) |  | patients in whom renal failure is reversed [1]: 30-40%
